Laboratory results from US20040127519A1 (Pharmacia Corporation, priority 2002, published 2004).
pIC50: −log10 of the molar value.

The compounds below were run against Recombinant MAPKAPK2 (Homo sapiens, UniProt P49137) (assay: Determination of MK-2 IC50 (HSP-peptide phosphorylation, anion exchange resin capture assay)). Settings: MK-2 Avg. IC50, Table 2, tricyclic aminocyanopyridine MK-2 inhibitors.
Sequence of Recombinant MAPKAPK2 (P49137 whole entry, species assumed): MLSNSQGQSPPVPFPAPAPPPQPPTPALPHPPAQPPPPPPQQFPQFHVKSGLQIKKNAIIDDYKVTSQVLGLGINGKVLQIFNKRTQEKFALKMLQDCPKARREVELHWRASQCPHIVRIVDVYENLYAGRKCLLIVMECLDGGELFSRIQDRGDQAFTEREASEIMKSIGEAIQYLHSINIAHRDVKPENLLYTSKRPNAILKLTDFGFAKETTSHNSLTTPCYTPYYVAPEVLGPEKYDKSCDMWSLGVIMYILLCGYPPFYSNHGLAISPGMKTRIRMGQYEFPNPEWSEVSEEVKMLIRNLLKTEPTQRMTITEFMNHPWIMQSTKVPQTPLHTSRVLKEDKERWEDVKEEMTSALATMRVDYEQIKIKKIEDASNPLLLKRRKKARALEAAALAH
Assay type: biochemical
Method: The phosphorylation of HSP-peptide ([…]) by MAPKAPK2 was measured using an anion exchange resin capture assay method. […] The reaction was terminated and [γ^33P]ATP was removed from solution by the addition of 150 μl of AG 1×8 ion exchange resin in 900 mM sodium formate pH 3.0. A 50 μl aliquot of head volume was removed from the quenched reaction mixture and added to a 96-well plate, 150 μl of Microscint-40 (Packard) was added and the amount of phosphorylated-peptide was determined. Allow the Microscint to sit in the plates for 60 minutes prior to counting.
Compounds are evaluated as potential inhibitors of the MK2 kinase by measuring their effects on MK2 phosphorylation of the peptide substrate. Compounds may be screened initially at two concentrations prior to determination of IC50 values. Screening results are expressed as percent inhibition at the concentrations of compound tested. For IC50 value determinations, compounds are tested at six concentrations in ten-fold serial dilutions with each concentration tested in triplicate. Results are expressed as IC50 values in micromolar. The assay is performed at a final concentration of 2% DMSO.
Compound `COc1cc2c(cc1OC)Oc1nc(N)c(C#N)c(NCCN(C)C)c1C2` [Example 63] has a pIC50 of 4.10. For `N#Cc1c(N)nc2c(c1N)Cc1cc([N+](=O)[O-])ccc1S2(=O)=O` [Example 64], the pIC50 was 4.09. Work on `N#Cc1c(N)nc2c(c1N)Cc1cc(-c3ccccc3)ccc1O2` [Example 65] yielded a pIC50 of 4.08. With `Cc1cc(Cl)cc2c1Oc1nc(N)c(C#N)c(N)c1C2` [Example 66] the pIC50 was 3.87. `CCNc1nc2c(c(NCC)c1C#N)Cc1ccc(OCC)cc1O2` [Example 68] gave a pIC50 of 3.83. Compound `COc1ccc2c(c1)Oc1nc(N)c(C#N)c(N)c1C2c1ccccc1F` (stereo not shown) [Example 69] has a pIC50 of 3.82. `N#Cc1c(N)nc2c(c1N)Cc1cccc(OCCO)c1O2` [Example 70] was tested, and the pIC50 was 3.81. Work on `N#Cc1c(N)nc2c(c1N)Cc1cccc(OCCN)c1O2` [Example 71] yielded a pIC50 of 3.79.

Same assay, conditions: MK-2 Avg. IC50, Table I, aminocyanopyridine MK-2 inhibitors
In the case of `COc1ccc(Nc2c(C#N)c(N)nc3c2CC(C(F)(F)F)O3)cc1` (stereo not shown) [Example 63], the pIC50 was 4.44. `CC(C)(C)NS(=O)(=O)c1ccc(-c2cc(-c3ccco3)c(C#N)c(N)n2)cc1` [Example 64] was tested, and the pIC50 was 4.44. In the case of `CCC1Cc2c(nc(N)c(C#N)c2N)O1` (stereo not shown) [Example 65], the pIC50 was 4.42. `N#Cc1c(-c2ccco2)cc(-c2ccncc2)nc1N` [Example 66] was tested, and the pIC50 was 4.40. Work on `CSc1cc(N)c(C#N)c(N)n1` [Example 67] yielded a pIC50 of 4.38. With `N#Cc1c(N)nc2c(c1-c1cccc(C(=O)O)c1)CCc1[nH]ncc1-2` [Example 68] the pIC50 was 4.38. `N#Cc1c(-c2cnc[nH]2)cc(-c2ccc(Cl)cc2)nc1N` [Example 69] gave a pIC50 of 4.37. For `N#Cc1c(N)nc2c(c1-c1cccc3c1OCO3)CCc1[nH]ncc1-2` [Example 70], the pIC50 was 4.36. In the case of `CC1Cc2c(nc(N)c(C#N)c2N)O1` (stereo not shown) [Example 71], the pIC50 was 4.36. For `CS(=O)(=O)c1ccc(-c2cc(-c3cnc[nH]3)c(C#N)c(N)n2)cc1` [Example 72], the pIC50 was 4.34. `N#Cc1c(N)nc2ccccc2c1N` [Example 73] gave a pIC50 of 4.34. For `N#Cc1c(N)nc2c(c1-c1ccco1)CCc1cc(N)ccc1-2` [Example 74], the pIC50 was 4.33. In the case of `N#Cc1c(-c2ccco2)cc(-c2ccco2)nc1N` [Example 75], the pIC50 was 4.32. Compound `N#Cc1c(-c2c[nH]c(C(=O)O)c2)cc(-c2ccco2)nc1N` [Example 76] has a pIC50 of 4.31. `CCCCC1Cc2c(nc(N)c(C#N)c2N)O1` (stereo not shown) [Example 77] showed a pIC50 of 4.31. For `CCOC(=O)c1ccc(-c2cc(-c3cnc[nH]3)c(C#N)c(N)n2)cc1` [Example 78], the pIC50 was 4.31. For `COc1cc(N)c(C#N)c(N)n1` [Example 79], the pIC50 was 4.29. In the case of `N#Cc1ccc(-c2c(C#N)c(N)nc3c2CCc2[nH]ncc2-3)cc1` [Example 81], the pIC50 was 4.28. In the case of `Cn1cccc1-c1cc(-c2ccco2)c(C#N)c(N)n1` [Example 83], the pIC50 was 4.26. With `N#Cc1c(-c2ccc(Oc3ccccc3)cc2)cc(-c2ccco2)nc1N` [Example 85] the pIC50 was 4.23. `N#Cc1c(N)nc2c(c1-c1cccnc1)CCc1n[nH]cc1-2` [Example 86] gave a pIC50 of 4.20. For `N#Cc1c(N)nc(SCC(=O)c2ccc(Cl)cc2)c(C#N)c1-c1ccco1` [Example 87], the pIC50 was 4.20. `CC(C)(C)NS(=O)(=O)c1ccc(-c2cc(-c3ccccc3)c(C#N)c(N)n2)cc1` [Example 90] showed a pIC50 of 4.17. For `COc1ccnc(N)c1C#N` [Example 91], the pIC50 was 4.16. Compound `N#Cc1c(-c2ccc(C(=O)O)cc2)cc(-c2ccco2)nc1N` [Example 92] has a pIC50 of 4.22. `COc1ccc(OCC2Cc3c(nc(N)c(C#N)c3N)O2)cc1` (stereo not shown) [Example 93] showed a pIC50 of 4.16. Work on `COc1ccc(-c2cc(-c3ccccc3F)c(C#N)c(N)n2)cc1` [Example 94] yielded a pIC50 of 4.15. Work on `CC(C)(C)NS(=O)(=O)c1ccc(-c2cc(-c3ccccc3F)c(C#N)c(N)n2)cc1` [Example 95] yielded a pIC50 of 4.15. For `N#Cc1c(N)nc2c(c1N)Cc1cccc(OCC(=O)O)c1O2` [Example 96], the pIC50 was 4.14. Compound `N#Cc1ccc(-c2ccco2)nc1N` [Example 98] has a pIC50 of 4.11. For `N#Cc1c(N)nc2c(c1-c1ccco1)CCc1c(O)cccc1-2` [Example 101], the pIC50 was 4.08. With `N#Cc1c(-c2ccco2)cc(-c2c[nH]c3ccccc23)nc1N` [Example 102] the pIC50 was 4.06. Work on `N#Cc1c(N)nc2c(c1-c1ccncc1)CCc1n[nH]cc1-2` [Example 103] yielded a pIC50 of 4.03. For `N#Cc1c(-c2cccc(F)c2)cc(-c2ccc(O)cc2)nc1N` [Example 104], the pIC50 was 4.02. With `N#Cc1c(N)nc2c(c1-c1ccccc1OC(F)F)CCc1[nH]ncc1-2` [Example 105] the pIC50 was 4.02. Compound `N#Cc1c(-c2ccco2)cc(-c2ccsc2)nc1N` [Example 106] has a pIC50 of 4.01. With `COc1ccc(-c2cc(-c3cccc(F)c3)c(C#N)c(N)n2)cc1` [Example 107] the pIC50 was 4.01. In the case of `N#Cc1c(-c2ccccc2B(O)O)cc(-c2ccco2)nc1N` [Example 108], the pIC50 was 4.00. `CCCc1nc(N)c(C#N)c(N)c1C#N` [Example 109] showed a pIC50 of 4.00. With `C#CCOCC1Cc2c(nc(N)c(C#N)c2N)O1` (stereo not shown) [Example 110] the pIC50 was 3.98. In the case of `N#Cc1c(N)nc2c(c1N)CC(CO)O2` (stereo not shown) [Example 111], the pIC50 was 3.97. `N#Cc1c(-c2ccc(C(F)(F)F)cc2)cc(-c2ccco2)nc1N` [Example 112] was tested, and the pIC50 was 3.97. `CC1(C)Cc2n[nH]cc2-c2nc(N)c(C#N)c(-c3ccco3)c21` [Example 114] was tested, and the pIC50 was 3.96. `N#Cc1c(-c2ccccc2F)cc(-c2ccco2)nc1NCC(=O)O` [Example 115] gave a pIC50 of 3.94. With `C=CCOCC1Cc2c(nc(N)c(C#N)c2N)O1` (stereo not shown) [Example 116] the pIC50 was 3.93. For `CC1Cc2c(nc(N)c(C#N)c2-c2ccco2)-c2ccccc21` (stereo not shown) [Example 117], the pIC50 was 3.92. In the case of `COCC1Cc2c(nc(N)c(C#N)c2N)O1` (stereo not shown) [Example 118], the pIC50 was 3.92. `N#Cc1c(-c2ccco2)cc(-c2c[nH]c3ccccc23)nc1N` [Example 119] gave a pIC50 of 3.92. In the case of `N#Cc1c(-c2ccco2)cc(-c2ccc(-n3ccnc3)cc2)nc1N` [Example 120], the pIC50 was 3.92. `N#Cc1c(-c2ccco2)cc(-c2ccc(O)cc2)nc1N` [Example 121] gave a pIC50 of 3.91. For `N#Cc1c(N)nc2c(c1-c1ccco1)C1CCC2C1` (stereo not shown) [Example 122], the pIC50 was 3.91. For `CC(C)OCC1Cc2c(nc(N)c(C#N)c2N)O1` (stereo not shown) [Example 123], the pIC50 was 3.90. `N#Cc1c(-c2ccco2)cc(-c2cccc(B(O)O)c2)nc1N` [Example 124] was tested, and the pIC50 was 3.90. `N#Cc1c(-c2ccc(Br)cc2)cc(-c2ccco2)nc1N` [Example 126] was tested, and the pIC50 was 3.89. With `N#Cc1c(N)nc2c(c1N)CC(COC(F)(F)C(F)F)O2` (stereo not shown) [Example 127] the pIC50 was 3.88. Work on `N#Cc1c(-c2ccc(C(F)(F)F)cc2F)cc(-c2ccco2)nc1N` [Example 128] yielded a pIC50 of 3.88. `COc1ccccc1-c1c(C#N)c(N)nc2c1CCc1n[nH]cc1-2` [Example 129] showed a pIC50 of 3.87. Compound `CC1Cc2n[nH]cc2-c2nc(N)c(C#N)c(-c3ccccc3F)c21` (stereo not shown) [Example 130] has a pIC50 of 3.85. `CCc1c(C#N)c(N)nc2[nH]nc(N)c12` [Example 131] showed a pIC50 of 3.84. Compound `N#Cc1c(-c2ccco2)cc(-c2ccccn2)nc1N` [Example 132] has a pIC50 of 3.83. For `N#Cc1c(-c2ccco2)cc(-c2cccc3cccc(O)c23)nc1N` [Example 133], the pIC50 was 3.82. `N#Cc1c(N)nc2c(c1-c1ccc(C(=O)O)cc1)CCc1[nH]ncc1-2` [Example 134] gave a pIC50 of 3.81. `N#Cc1c(-c2ccco2)cc(-c2ccc(Cl)c(Cl)c2)nc1N` [Example 135] was tested, and the pIC50 was 3.81. `N#Cc1c(-c2ccco2)cc(-c2ccc3c(c2)Nc2ccccc2S3)nc1N` [Example 136] gave a pIC50 of 3.80. `N#Cc1c(N)nc2ccccc2c1C(=O)O` [Example 137] showed a pIC50 of 3.79. `N#Cc1c(-c2ccccc2F)cc(-c2ccco2)nc1Nc1ccccc1` [Example 138] gave a pIC50 of 3.79. Work on `N#Cc1c(-c2cccc(F)c2)cc(-c2ccco2)nc1N` [Example 139] yielded a pIC50 of 3.79. In the case of `N#Cc1c(-c2ccc(F)cc2)cc(-c2ccco2)nc1N` [Example 140], the pIC50 was 3.78. `CC(C)(C)OCC1Cc2c(nc(N)c(C#N)c2N)O1` (stereo not shown) [Example 141] gave a pIC50 of 3.78. Compound `N#Cc1c(-c2ccco2)cc(-c2nccs2)nc1N` [Example 142] has a pIC50 of 3.78. `N#Cc1c(-c2ccccc2F)cc(-c2ccco2)nc1N1CCCCC1` [Example 143] showed a pIC50 of 3.75. With `N#Cc1c(-c2ccco2)cc(-c2ccc(Cl)cc2)nc1N` [Example 144] the pIC50 was 3.74. In the case of `COc1ccccc1-c1cc(-c2ccc(O)cc2)nc(N)c1C#N` [Example 145], the pIC50 was 3.74. With `N#Cc1c(-c2ccccc2O)cc(-c2ccco2)nc1N` [Example 146] the pIC50 was 3.73. Work on `COC(=O)c1cccc(-c2c(C#N)c(N)nc3c2CCc2[nH]ncc2-3)c1` [Example 147] yielded a pIC50 of 3.72. Compound `Cc1ccc(-c2cc(-c3ccccc3Cl)c(C#N)c(N)n2)o1` [Example 148] has a pIC50 of 3.72. With `COC(=O)c1ccc(-c2cc(-c3ccco3)c(C#N)c(N)n2)cc1` [Example 150] the pIC50 was 3.70.
